From ChEMBL document CHEMBL4888484, “Replenishing the malaria drug discovery pipeline: Screening and hit evaluation of the MMV Hit Generation Library 1 (HGL1) against asexual blood stage Plasmodium falciparum ,using a nano luciferase reporter read-out” (2022)

How the values were obtained:
[1] = tested on: Plasmodium falciparum; assay: Hit confirmation in dose-response curve in NF54 nanoGlo assay, at 72h; format: functional, organism-based, Erythrocyte; parameters: timepoint 72 hour; conditions: Plasmodium falciparum, NF54, Erythrocyte, 72 h
[2] = tested on: Plasmodium falciparum; assay: Hit confirmation in dose-response curve in NF54 pLDH assay, at 72h; format: functional, organism-based; parameters: timepoint 72 hour; conditions: NF54, Erythrocyte
[3] = tested on: Plasmodium falciparum; assay: Hit confirmation in dose-response curve in Dd2 pLDH assay, at 72h; format: functional, organism-based; parameters: timepoint 72 hour; conditions: Dd2, Erythrocyte
[4] = tested on: Plasmodium falciparum; assay: Hit confirmation in dose-response curve in NF54 nanoGlo assay, at 12h; format: functional, organism-based, Erythrocyte; parameters: timepoint 12 hour; conditions: Plasmodium falciparum, NF54, Erythrocyte, 12 h
[5] = Hit confirmation in dose-response curve in HepG2 cytotoxicity assay, at 72h; format: toxicity, cell-based; parameters: timepoint 72 hour; conditions: human, HepG2 cells

SMILES | IC50 [1] | IC50 [2] | IC50 [3] | IC50 [4] | IC50 at 72 h [5]
CCc1cc(N2C[C@@H]3NC(=O)CN(C)Cc4ccc(OC)c(c4)Oc4cccc(c4)CO[C@H]3C2)nc(N(C)C)n1 | 2.04 µM | 3.47 µM | 3.47 µM | 4.79 µM | > 10 µM
CC(N=C1NC(=NC(C)c2ccccc2)c2ccccc21)c1ccccc1 (stereo not given) | 2.45 µM | 5.01 µM | 4.17 µM | 4.9 µM | > 10 µM
COc1ccc(C(=O)Nc2ccc3c(c2)C(=O)Nc2cccnc2O3)cc1OC | 3.16 µM | > 10 µM | > 10 µM | 11 µM | > 10 µM
c1ccc(CCNc2nc(-c3ccccn3)cs2)cc1 | 2.45 µM | 3.24 µM | 3.63 µM | > 10 µM | > 10 µM
Cc1ccccc1Cn1cnc2c1c(=O)n(C1CCCCC1)c(=O)n2-c1ccccc1Cl | 1.74 µM | 5.5 µM | 4.27 µM | > 10 µM | > 10 µM
CCOc1cc(C(c2c(C)n(C)n(-c3ccccc3)c2=O)c2c(C)n(C)n(-c3ccccc3)c2=O)ccc1OCc1ccccc1 | 1.86 µM | 6.92 µM | 4.68 µM | 3.09 µM | > 10 µM
COc1ccc(-c2cc3n(n2)C[C@@](C)(C(=O)NCc2ccccc2OC)N(c2cccc(OC)c2)C3=O)cc1 | 3.02 µM | > 10 µM | > 10 µM | 4.79 µM | > 10 µM
Cc1c(F)cccc1NC(=O)N1CCN(C2=CC3=N[C@@H](C)CN3C=N2)CC1 | 3.63 µM | 2.69 µM | 4.07 µM | > 10 µM | > 10 µM
COc1ccccc1C1c2[nH]c3ccccc3c2C[C@H]2C(=O)N(CC(O)c3ccccc3)CC(=O)N12 (stereo not given in full) | 3.16 µM | 8.91 µM | > 10 µM | 4.47 µM | > 10 µM
COc1ccc(C)c2sc(N(CCCn3ccnc3)C(=O)Cc3ccc(F)cc3)nc12 | 1.95 µM | 4.37 µM | 4.37 µM | 2.95 µM | > 10 µM
CC(CC1OCC(C[N+]2(Cc3ccccc3)CCCCC2)O1)CC(C)(C)C (stereo not given) | 0.912 µM | 2.04 µM | 2.51 µM | > 10 µM | > 10 µM
Cn1n[n+](CCCCC(Cl)(Cl)Cl)c2ccccc21 | 2.82 µM | 3.31 µM | 2.88 µM | > 10 µM | > 10 µM
O=C(Cc1ccc(N(Cc2cccc(F)c2)C(=O)c2cccc(F)c2)cc1)NCCN1CCCCC1 | 3.24 µM | 5.25 µM | 7.94 µM | > 10 µM | > 10 µM
OC(CNC1CCCNc2ccccc21)c1ccc(Cl)s1 (stereo not given) | 2.29 µM | 3.89 µM | 3.63 µM | 2.95 µM | > 10 µM
COc1ccc(-n2ncc3c(N)c4c(nc32)CCCC4=O)cc1 | 6.61 µM | > 10 µM | > 10 µM | 3.89 µM | > 10 µM
O=C(Nc1[nH]c(=O)ncc1F)c1coc(-c2ccccc2)n1 | 0.00589 µM | 0.0112 µM | > 10 µM | > 10 µM | > 10 µM
O=C(c1ccccc1)c1cc(Cl)ccc1NC(=O)[C@H]1CC(=O)N(c2ccc(F)cc2)C1 | 2.24 µM | 3.39 µM | 4.17 µM | 4.37 µM | > 10 µM
O=C(Nc1onc2c1CCC2)c1ccc2ccccc2c1 | 2.82 µM | 4.79 µM | 4.27 µM | 3.02 µM | 4.07 µM
Cc1ccc(-c2cc(C(=O)Nc3nnc(C(C)C)s3)no2)cc1F | 3.8 µM | > 10 µM | > 10 µM | 1.91 µM | > 10 µM
CC1CCN(c2nccnc2Oc2ccc(C(=O)NCc3ccccc3Cl)cc2)CC1 | 2.45 µM | 9.55 µM | 6.61 µM | > 10 µM | > 10 µM
Clc1ccc(C[n+]2ccc(-c3nc4ccccc4o3)cc2)c(Cl)c1 | 0.575 µM | 0.603 µM | 0.525 µM | > 10 µM | > 10 µM
Cc1ccc(-c2cc(O)cc(CC[C@H]3CCCCN3)c2)c(C)n1 | 1.86 µM | 2.82 µM | 1.66 µM | 5.62 µM | > 10 µM
NC(=O)c1ccc(C(F)(F)F)n(C[C@H](O)c2cc(Cl)ccc2Cl)c1=O | 2.63 µM | 6.17 µM | 3.8 µM | 7.24 µM | > 10 µM
CC1(C)C(NCC(O)COc2ccc(F)c(F)c2)[C@@H]2CCC[C@@H]21 (stereo not given in full) | 1.78 µM | 3.24 µM | 3.24 µM | 2.95 µM | > 10 µM
